Reference: US20240277829A1, “HIV-1 VACCINATION AND SAMT-247 MICROBICIDE TO PREVENT HIV-1 INFECTION” (priority 2021, published 2024)

How the values were obtained:
Format in all cases: cell-based
NKG2A^+ cells = assay: Zinc chelation: macaque blood NK cells, SAMT-247 and/or gp120 peptides with or without TPEN; details: for frequency of IFN-γ^+ NKG2A^+ cells / frequency of TNF-α^+ NKG2A^+ cells: with vs without zinc chelator
Procedure: (§1) Zinc chelation: The frequencies and cytokine levels of NK cells, monocytes and T cells were measured in macaque blood. Cryopreserved PBMCs were thawed and cultured in R10 in the presence/or absence of SAMT-247 and/or gp120 peptides for 12 hours. Cells were incubated with or without Zinc chelator TPEN (cat. #P4413-100 MG, 5 μM) for 12 h. Subsequently, cells were stained for live cells with Live/Dead Blue dye (cat. #L34962, 0.5 μl) from Thermofisher; followed by surface staining with the following: Alexa 700 anti-CD3 (SP34-2; cat. #557917, 5 μl), BV711 anti-CD4 (L200; cat. #563913, 5 μl), BB700 anti-CD8 (RPA-T8; cat. #566452, 5 μl), BUV737 anti-CD20 (2H7; cat. #612848, 5 μl), PE anti-CD45 (D058-1283; cat. #552833, 5 μl), BV786 anti-CCR5 (3A9; cat. #565001, 5 μl), BV496 anti-CD16 (3G8; cat. #612944, 5 μl), BUV661 anti-HLA-DR (G46-6; cat. #612980, 5 μl), BUV805 anti-CD14 (M5E2; cat. #565779, 5 μl) from BD Biosciences; APC-H7 anti-CD11b (ICRF44; cat. #47-0118-42, 5 μl), PE-Cy5 anti-CD95 (ICRF44; cat. #15-0959-42, 5 μl) from eBioscience; APC anti-α4β7, provided by the NIH Nonhuman Primate Reagent Resource (R24 OD010976, and NIAID contract HHSN272201300031C); BV605 anti-CCR6 (G034E3; cat. #353420, 5 μl), BV650 anti-CXCR3 (G025H7; cat. #353730, 5 μl), from Biolegend and PE-Cy7 anti-NKG2A (Z199; cat. #B10246, 5 μl) from Beckman coulter for 30 minutes at room temperature. This was followed by permeabilization with a FOX3-transcription buffer set (cat. #00-5523-00) from eBioscience according to the manufacture's recommendation and subsequently intracellular staining with the following: BV750 anti-TNF-α (MAB11; cat. #566359, 5 μl), BUV395 anti-IFN-γ (B27; cat. #563563, 5 μl), BV510 anti-GranB (GB11; cat. #563388, 5 μl), BV421 anti-IL-10 (JES3-9D7; cat. #564053, 5 μl), PE-CF594 anti-Ki67 (B56; cat. #567120, 5 μl) from BD Biosciences and FITC anti-Perforin (pf-344; cat. #3465-7, 5 μl) from MABTECH for 30 minutes at room temperature. Flow cytometry acquisitions were performed on a FACSYMPHONY™ A5 and examined using FACSDIVA™ software (BD Biosciences).

NKG2A^+ NK cells = assay: Intracellular cytokines of human blood NK cells using SAMT-247 and PMA stimulation with or without zinc chelator; details: PMA stimulation with or without SAMT-247, presence of TPEN
Procedure: Intracellular cytokines of Human blood NK cells using SAMT-247 and PMA stimulation with or without zinc chelator. The levels of NKG2A^+ NK cells were measured in blood of healthy humans. Human PBMCs were thawed and cultured in R10 in the presence or absence of SAMT-247 and/or PMA for 12 hours. Cells were incubated with or without Zinc chelator TPEN (cat. #P4413-100 MG, 5 μM) for 12 h. Subsequently, PBMCs were surface stained with the following: BUV737 anti-CD3 (SP34-2; cat. #741872, 5 μl), Alexa700 anti-CD20 (2H7; cat. #560631, 5 μl), BV786 anti-CD45 (HI30; cat. #563716, 5 μl) from BD Biosciences; APC-H7 anti-CD11b (ICRF44; cat. #47-0118-42, 5 μl) from eBioscience and PE-Cy7 anti-NKG2A (Z199; cat. #B10246, 5 μl) from Beckman coulter for 30 minutes at room temperature. This was followed by permeabilization with FOX3-transcription buffer set (cat. #00-5523-00) from eBioscience according to the manufacture's recommendation and subsequently intracellular staining with the following: BV750 anti-TNF-α (MAB11; cat. #566359, 5 μl), BUV396 anti-IFN-γ (B27; cat. #563563, 5 μl), BV510 anti-GranB (GB11; cat. #563388, 5 μl) from BD Biosciences; and FITC anti-Perforin (pf-344; cat. #3465-7, 5 μl) from MABTECH for 30 minutes at room temperature. Flow cytometry acquisitions were performed on a FACSymphony A5 and examined using FACSDIVA™ software (BD Biosciences).

CD14^+ monocytes = assay: Zinc chelation: macaque blood monocytes, SAMT-247 and/or gp120 peptides with or without TPEN
Procedure: as §1

human NK cells = assay: Zinc intensity by confocal microscopy
Procedure: Zinc intensity. NKG2A^+ NK cells were isolated from cryopreserved healthy human PBMCs. NK cells were labeled with APC anti-NKG2A (Z199, cat. #A60797) from Beckman coulter, followed by separation with APC MicroBeads (#130-090-855, Miltenyi Biotec Inc.) using manufacturer instructions. Subsequently NK cells were cultured in the presence or absence of SAMT-247 and/or PMA stimulation for 7 hours. Cells were plated on ibidi chamber slides. Cells were washed and treated with zinc chelator or remained untreated for 30 minutes according to the manufacturers' recommendation using a cell-based Zinc assay kit (cat. #ab241014, Abcam). Subsequently cells were washed and stained with Zinc probe-green (cat. #ab241014, Abcam) and DAPI (Molecular Probes, Waltham, MA, USA) was used to visualize nuclei. Signals were visualized with a confocal laser-scanning microscope (Leica SP8, Buffalo Grove, IL, USA). Image processing was performed using the Imaris 9.2.1 software.

Th1 and Th2 cells = assay: Zinc chelation: macaque blood T cells, SAMT-247 and/or gp120 peptides with or without TPEN; details: for frequency of IFN-γ^+ Th1^+ cells / frequency of IFN-γ^+ Th1^+CCR5^+α4β7^+ cells / frequency of IFN-γ^+ Th1^+CCR5^−α4β7^− cells / frequency of IFN-γ^+ Th2^+ cells / frequency of IFN-γ^+ Th2^+CCR5^+α4β7^+ cells / frequency of IFN-γ^+ Th2^+CCR5^−α4β7^− cells / frequency of IL-10^+ Th1^+ cells / frequency of IL-10^+ Th1^+CCR5^+α4β7^+ cells / frequency of IL-10^+ Th1^+CCR5^−α4β7^− cells / frequency of IL-10^+ Th2^+ cells / frequency of IL-10^+ Th2^+CCR5^+α4β7^+ cells / frequency of IL-10^+ Th2^+CCR5^−α4β7^− cells / frequency of TNF-α^+ Th1^+ cells / frequency of TNF-α^+ Th1^+CCR5^+α4β7^+ cells / frequency of TNF-α^+ Th1^+CCR5^−α4β7^− cells / frequency of TNF-α^+ Th2^+ cells / frequency of TNF-α^+ Th2^+CCR5^+α4β7^+ cells: with vs without zinc chelator
Procedure: as §1

[1] = gp120 pooled peptide + SAMT-247
[2] = SAMT-247, with vs without zinc chelator
[3] = gp120 pooled peptide + SAMT-247, with vs without zinc chelator
[4] = gp120 pooled peptide, with vs without zinc chelator
[5] = gp120 pooled peptides ± SAMT-247, TPEN treatment

c1ccc(CN(CCN(Cc2ccccn2)Cc2ccccn2)Cc2ccccn2)nc1 [Zinc chelator, N, N,N′,N′ tetrakis-(2-pyridyl-methyl) ethylendiamine]
IFN-γ and TNF-α expression in NKG2A^+ cells (NKG2A^+ cells; gp120 peptide and gp120 peptide/SAMT-247 treated cells, TPEN): significantly decreased
SAMT-247's ability to increase granzyme B and perforin in NKG2A^+ cells (NKG2A^+ cells; gp120 peptide stimulation, presence of TPEN): No significant changes
frequency of IFN-γ^+ NKG2A^+ cells (NKG2A^+ cells; [1]): ↓
frequency of TNF-α^+ NKG2A^+ cells (NKG2A^+ cells; [1]): ↓
frequency of IFN-γ^+ NKG2A^+ cells (NKG2A^+ cells; gp120 pooled peptide): ↓
frequency of TNF-α^+ NKG2A^+ cells (NKG2A^+ cells; gp120 pooled peptide): ↓
IFN-γ and TNF-α expression in human NKG2A^+ cells (NKG2A^+ NK cells): significantly reduced
frequency of CD14^+ cells (CD14^+ monocytes; [2]): ↓
frequency of IL-10^+ CD14^+ cells (CD14^+ monocytes; [2]): ↓
frequency of CD14^+ cells (CD14^+ monocytes; [3]): ↓
frequency of IL-10^+ CD14^+ cells (CD14^+ monocytes; [3]): ↓
frequency of CD14^+ cells (CD14^+ monocytes; [4]): ↓
frequency of IL-10^+ CD14^+ cells (CD14^+ monocytes; [4]): ↓
IL-10 production by CD14^+ cells (CD14^+ monocytes; [5]): decreased
frequency of CD14^+ cells (CD14^+ monocytes; [5]): decreased
zinc intensity of PMA+SAMT-247 stimulated cells vs not treated with chelator (human NK cells): significantly lower
frequency of IFN-γ^+ Th1^+ cells (Th1 and Th2 cells; SAMT-247): ↓
frequency of IFN-γ^+ Th1^+CCR5^+α4β7^+ cells (Th1 and Th2 cells; SAMT-247): ↓
frequency of IFN-γ^+ Th1^+CCR5^−α4β7^− cells (Th1 and Th2 cells; SAMT-247): ↓
frequency of IFN-γ^+ Th2^+ cells (Th1 and Th2 cells; SAMT-247): ↓
frequency of IFN-γ^+ Th2^+CCR5^+α4β7^+ cells (Th1 and Th2 cells; SAMT-247): ↓
frequency of IFN-γ^+ Th2^+CCR5^−α4β7^− cells (Th1 and Th2 cells; SAMT-247): ↓
frequency of IL-10^+ Th1^+ cells (Th1 and Th2 cells; SAMT-247): ↓
frequency of IL-10^+ Th1^+CCR5^+α4β7^+ cells (Th1 and Th2 cells; SAMT-247): ↓
frequency of IL-10^+ Th1^+CCR5^−α4β7^− cells (Th1 and Th2 cells; SAMT-247): ↓
frequency of IL-10^+ Th2^+ cells (Th1 and Th2 cells; SAMT-247): ↓
frequency of IL-10^+ Th2^+CCR5^+α4β7^+ cells (Th1 and Th2 cells; SAMT-247): ↓
frequency of IL-10^+ Th2^+CCR5^−α4β7^− cells (Th1 and Th2 cells; SAMT-247): ↓
frequency of TNF-α^+ Th1^+ cells (Th1 and Th2 cells; SAMT-247): ↓
frequency of TNF-α^+ Th1^+CCR5^+α4β7^+ cells (Th1 and Th2 cells; SAMT-247): ↓
frequency of TNF-α^+ Th1^+CCR5^−α4β7^− cells (Th1 and Th2 cells; SAMT-247): ↓
frequency of TNF-α^+ Th2^+ cells (Th1 and Th2 cells; SAMT-247): ↓
frequency of TNF-α^+ Th2^+CCR5^+α4β7^+ cells (Th1 and Th2 cells; SAMT-247): ↓
INF-γ and IL-10 production in Th2 CCR5^−α4β7^− cells (Th1 and Th2 cells; TPEN): decreased
frequency of IFN-γ^+ Th1^+CCR5^+α4β7^+ cells (Th1 and Th2 cells; Unstim): ↓
frequency of IL-10^+ Th1^+CCR5^+α4β7^+ cells (Th1 and Th2 cells; Unstim): ↓
frequency of IL-10^+ Th1^+CCR5^−α4β7^− cells (Th1 and Th2 cells; Unstim): ↓
frequency of IL-10^+ Th2^+CCR5^+α4β7^+ cells (Th1 and Th2 cells; Unstim): ↓
frequency of TNF-α^+ Th2^+CCR5^+α4β7^+ cells (Th1 and Th2 cells; Unstim): ↓
frequency of IFN-γ^+ Th1^+ cells (Th1 and Th2 cells; [1]): ↓
frequency of IFN-γ^+ Th1^+CCR5^+α4β7^+ cells (Th1 and Th2 cells; [1]): ↓
frequency of IFN-γ^+ Th1^+CCR5^−α4β7^− cells (Th1 and Th2 cells; [1]): ↓
frequency of IFN-γ^+ Th2^+ cells (Th1 and Th2 cells; [1]): ↓
frequency of IFN-γ^+ Th2^+CCR5^+α4β7^+ cells (Th1 and Th2 cells; [1]): ↓
frequency of IFN-γ^+ Th2^+CCR5^−α4β7^− cells (Th1 and Th2 cells; [1]): ↓
frequency of IL-10^+ Th1^+ cells (Th1 and Th2 cells; [1]): ↓
frequency of IL-10^+ Th1^+CCR5^+α4β7^+ cells (Th1 and Th2 cells; [1]): ↓
frequency of IL-10^+ Th1^+CCR5^−α4β7^− cells (Th1 and Th2 cells; [1]): ↓
frequency of IL-10^+ Th2^+ cells (Th1 and Th2 cells; [1]): ↓
frequency of IL-10^+ Th2^+CCR5^+α4β7^+ cells (Th1 and Th2 cells; [1]): ↓
frequency of IL-10^+ Th2^+CCR5^−α4β7^− cells (Th1 and Th2 cells; [1]): ↓
frequency of TNF-α^+ Th1^+CCR5^−α4β7^− cells (Th1 and Th2 cells; [1]): ↓
frequency of TNF-α^+ Th2^+ cells (Th1 and Th2 cells; [1]): ↓
frequency of TNF-α^+ Th2^+CCR5^+α4β7^+ cells (Th1 and Th2 cells; [1]): ↓
frequency of IFN-γ^+ Th1^+CCR5^+α4β7^+ cells (Th1 and Th2 cells; gp120 pooled peptide): ↓
frequency of IFN-γ^+ Th1^+CCR5^−α4β7^− cells (Th1 and Th2 cells; gp120 pooled peptide): ↓
frequency of IFN-γ^+ Th2^+ cells (Th1 and Th2 cells; gp120 pooled peptide): ↓
frequency of IFN-γ^+ Th2^+CCR5^+α4β7^+ cells (Th1 and Th2 cells; gp120 pooled peptide): ↓
frequency of IL-10^+ Th1^+CCR5^+α4β7^+ cells (Th1 and Th2 cells; gp120 pooled peptide): ↓
frequency of IL-10^+ Th1^+CCR5^−α4β7^− cells (Th1 and Th2 cells; gp120 pooled peptide): ↓
frequency of IL-10^+ Th2^+CCR5^+α4β7^+ cells (Th1 and Th2 cells; gp120 pooled peptide): ↓
frequency of IL-10^+ Th2^+CCR5^−α4β7^− cells (Th1 and Th2 cells; gp120 pooled peptide): ↓
frequency of TNF-α^+ Th1^+ cells (Th1 and Th2 cells; gp120 pooled peptide): ↓
frequency of TNF-α^+ Th1^+CCR5^+α4β7^+ cells (Th1 and Th2 cells; gp120 pooled peptide): ↓
frequency of TNF-α^+ Th2^+CCR5^+α4β7^+ cells (Th1 and Th2 cells; gp120 pooled peptide): ↓
percentage of CCR5^+α4β7^+ Th1 and Th2 cells (Th1 and Th2 cells; week 17, gp120 pooled peptides ± SAMT-247, TPEN): decreased percentage
number of Th1 CCR5^−α4β7^− cells (Th1 and Th2 cells; week 17, gp120 pooled peptides ± SAMT-247, Zn chelation): decreased
